How the values were obtained:
[1] = system: Propionibacterium acnes and Staphylococcus epidermidis; details: aerobic and anaerobic organisms; cited from earlier work
[2] = system: Gram-positive and Gram-negative bacteria; details: e.g., Escherichia coli, Proteus mirabilis, Pseudomonas aeruginosa, Staphylococcus and Streptococcus species; cited from earlier work
[3] = system: dermatophytes, yeasts, moulds and other fungi; details: cited from earlier work
[4] = system: Staphylococcus epidermidis ATCC 12228; assay: OD (600 nm) of incubated bacterial samples under simulated GI conditions (bile, mucin, pH, yeast), 4 hour incubation; format: cell-based; details: Yeast Amphotericin B
Description: (§1) Experiments were performed in order to simulate an ingestible device that contains sterile media that is inoculated with a sample of fluid from the GI tract and incubated in transit. […] The samples were also incubated under conditions of shear forces and temperature that simulate conditions of an ingestible device in transit within the GI tract.
(§2) The assay utilized 50 μL, sample volumes, under shear (110 rpm) and at body temperature (37° C.) over a 4 hour incubation period to simulate transit of an ingestible device within the GI tract. […] Experiments were conducted in quintuplicate.

[5] = system: Escherichia coli ATCC 25922; assay: as above; format: cell-based; details: Yeast+Amphotericin B
Description: as §1, §2

C. albicans = assay: Fungal contamination of incubated OD assay, with or without anti-fungal recovery media; format: cell-based; details: TSB containing 2.5 mg/L Amphotericin B
[6] = numerous murine models; cited from earlier work
human IL-6 = human IL-6 (Homo sapiens, UniProt P05231); details: cited from earlier work
Chain of human IL-6 (P05231 30-212): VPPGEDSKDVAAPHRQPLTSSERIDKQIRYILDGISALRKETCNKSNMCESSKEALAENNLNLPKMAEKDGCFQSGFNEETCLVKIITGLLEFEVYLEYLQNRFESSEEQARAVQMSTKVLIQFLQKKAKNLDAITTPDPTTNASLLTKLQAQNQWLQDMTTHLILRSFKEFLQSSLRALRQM

Q: With `O=C(O)CCCCCCCC(=O)O` [Azelaic acid] as the compound, how does the antibacterial effects [1] read?
A: The antibacterial effects was “antibacterial effects”.

Q: For `Cc1cc(C2CCCCC2)n(O)c(=O)c1` [Ciclopirox], which activity against bacteria [2] is on record?
A: Its activity against bacteria is “effective”.

Q: What about the antifungal activity [3] of the same compound?
A: The antifungal activity was “fungicidal, fungistatic and sporicidal activity”.

Q: Which “OD (600 nm) Mean” value ([4]; SE 10^3 initial concentration) does the source give for `C[C@@H]1[C@H](O)[C@@H](C)/C=C/C=C/C=C/C=C/C=C/C=C/C=C/[C@H](O[C@@H]2O[C@H](C)[C@@H](O)[C@H](N)[C@@H]2O)C[C@@H]2O[C@](O)(C[C@@H](O)C[C@@H](O)[C@H](O)CC[C@@H](O)C[C@@H](O)CC(=O)O[C@H]1C)C[C@H](O)[C@H]2C(=O)O` [amphotericin B, Amphotericin B] here?
A: The value was 0.0425.

Q: And the “OD (600 nm) Mean” value ([4]; SE 10^4 initial concentration)?
A: Its value is 0.0437.

Q: And the “OD (600 nm) Mean” value ([4]; SE 10^5 initial concentration)?
A: Its value is 0.0454.

Q: What about the “OD (600 nm) Mean” value ([4]; SE 10^6 initial concentration) of the same compound?
A: The value was 0.0611.

Q: And the “OD (600 nm) Mean” value ([4]; SE 10^7 initial concentration)?
A: Its value is 0.0971.

Q: And the “OD (600 nm) Mean” value ([5]; EC 10^3 initial concentration)?
A: Its value is 0.0410.

Q: What about the “OD (600 nm) Mean” value ([5]; EC 10^4 initial concentration) of the same compound?
A: The value was 0.0432.

Q: What about the “OD (600 nm) Mean” value ([5]; EC 10^5 initial concentration) of the same compound?
A: Its value is 0.0562.

Q: What about the “OD (600 nm) Mean” value ([5]; EC 10^6 initial concentration) of the same compound?
A: The value was 0.1038.

Q: And the “OD (600 nm) Mean” value ([5]; EC 10^7 initial concentration)?
A: The value was 0.1274.

Q: And the “Effect on background fungal growth (plate counts and optical density)” value (C. albicans)?
A: The value was “reduced the background fungal growth”.

Q: With “L-glutamic acid polymer with L-alanine, L-lysine and L-tyrosine, acetate (salt) [Glatiramer acetate]” as the compound, how does the “inflammation and pathological manifestations of IBD” value [6] read?
A: The value was “reduce inflammation and ameliorate the pathological manifestations”.

Q: For “siltuximab: chimeric, human-murine, immunoglobulin (Ig) Gκ mAb that binds and neutralizes human IL-6”, which “binding and neutralization of human IL-6” value (human IL-6) is on record?
A: Its value is “high affinity and specificity”.

Reference: US11547301B2, “Methods for collecting and testing bacteria containing samples from within the gastrointestinal tract” (priority 2016, dated 2023)
